Common to all, as to format: cell-based, Human
For one assay, the system named is EOL-1 cells. Briefly: EOL-1 cell growth and viability assay (Guava Viacount, 11 days). On the procedure: Human leukemia cell line EOL-1 (Catalog # ACC-386) was purchased from DSMZ and were grown in Roswell Park Memorial Institute medium (RPMI) with 10% Fetal Bovine Serum (FBS). Cells were kept in log growth as outlined in the technical data sheet provided by the vendor.
Exponentially growing EOL-1 cells were plated in 96-well plates at a density of 3×10^4 viable cells/well. Each treatment was seeded in triplicate with a final well volume of 150 μLs. Cells were incubated with increasing concentrations of DOT1L inhibitor up to 50 μM. Viable cell number was determined every 3-4 days for 11 days using the Guava Viacount assay (Millipore #4000-0040) and analyzed on a Guava EasyCyte Plus instrument according to the manufacturer's protocol. On the days of cell counts, growth media and inhibitor were replenished and cells maintained in log phase culture by reseeding at a density of 5×10^4 viable cells/well. Total cell number was expressed as split-adjusted viable cells per well. For each cell inhibitor IC50 values were determined from concentration-dependence curves at day 11. […]
The effect of DOT1L inhibitors on leukemia cell growth and viability was investigated. […] The number of viable cells was determined every 3-4 days for 11 days. […] Total cell number was expressed as split-adjusted viable cells per well. […]

Another assay relates to HOXA9. As to the kind of experiment: Quantitative real-time PCR, HOXA9 expression after DOT1L inhibitor treatment. The conditions noted are these: up to 10 μM for 6 days, qPCR. Here is the method:
(§1) Exponentially growing EOL-1 cells were plated in a 12 well plate at 2×10^5 cells/mL. […] On day 4, cells were maintained in log phase culture by reseeding at 5×10^5 cells/mL and compound was replenished. At day 6 cells were washed twice with PBS and pelleted by centrifugation at 200×g. Cell pellets were lysed in 300 μL RLT buffer (Qiagen) and total RNA was isolated using the RNeasy total RNA isolation kit (Qiagen 74106). Total RNA (1 μg) was reverse transcribed using a high capacity cDNA reverse transcription kit (Applied Biosystems 4368813). RNA isolation and cDNA synthesis were carried out according to the manufacturer's protocol. Predesigned labeled primer and probe sets for HOXA9 (Hs00365956), MEIS1 (Hs00180020) and FLT3 (Hs00975659) were purchased from Applied Biosystems. Quantitative real-time PCR (qPCR) reactions contained 50 ng cDNA, 1× labeled primer and probe set, and 1× Taqman universal PCR master mix (Applied Biosystems 4304437). Samples were run on a 7900 HT Fast Real Time PCR machine (Applied Biosystems 4351405) with cycling conditions of 2 min 50° C., 10 min 95° C., 40 cycles at 15 sec 95° C. and 1 min 60° C. […] Percent of DMSO control was calculated with the equation (2^−ΔΔCT)*100 where the ΔΔCT is the difference between normalized target gene and DMSO control (ΔCT sample−ΔCT control=ΔΔCT). […]
On the technique in general: In qPCR the cycle at which signal appears reflects the starting amount.

The subject of another assay is H3K79me2. As to the kind of experiment: H3K79me2 immunoblot in EOL-1 cells. Here is the method: Nuclei were collected by centrifugation at […] for 5 minutes at 4° C. and washed once in Tris/EDTA buffer (pH 7.4). Supernatant was removed and histones extracted for one hour with 60 μl 0.4 N cold sulfuric acid. Extracts were clarified by centrifugation at 10,000 g for 10 minutes at 4° C. and transferred to a fresh microcentrifuge tube containing 600 μl ice cold acetone. Histones were precipitated at −20° C. for 2 hours, pelleted by centrifugation at 10,000 g for 10 minutes and resuspended in 60 μl distilled water (DI water). Total protein of the acid extracts was assessed using a bicinchoninic acid (BCA) protein quantification assay with a bovine serum albumin (BSA) standard (Pierce Biotechnology).
For immunoblot analysis of the H3K79me2 inhibition by DOT1L inhibitor, exponentially growing EOL-1 cells were seeded at 2×10^5 cells/mL and incubated in the presence of increasing concentrations of DOT1L inhibitor for 4 days. […] Signal intensities specific for each methyl-specific antibody was quantified using Odyssey software and normalized to that of the appropriate total histone control signal on the same filter by dividing the methyl-specific antibody signal intensity by the total histone control signal intensity.
Inhibition of methylation of H3K79 was assessed after 4 days of treatment of DOT1L compounds in exponentially growing EOL-1 cells. […]
For orientation: Immunoblotting shows a protein as a band on a membrane.

In another assay the test system is FLT3. As to the kind of experiment: Quantitative real-time PCR, FLT3 expression after DOT1L inhibitor treatment. The conditions noted are these: up to 10 μM for 6 days, qPCR. On the procedure:
as §1

The test system of the next assay is MEIS1. Briefly: Quantitative real-time PCR, MEIS1 expression after DOT1L inhibitor treatment. The note with it: up to 10 μM for 6 days, qPCR. On the procedure: (§2) Exponentially growing EOL-1 cells were plated in a 12 well plate at 2×10^5 cells/mL. […] On day 4, cells were maintained in log phase culture by reseeding at 5×10^5 cells/mL and compound was replenished. At day 6 cells were washed twice with PBS and pelleted by centrifugation at 200×g. Cell pellets were lysed in 300 μL RLT buffer (Qiagen) and total RNA was isolated using the RNeasy total RNA isolation kit (Qiagen 74106). Total RNA (1 μg) was reverse transcribed using a high capacity cDNA reverse transcription kit (Applied Biosystems 4368813). RNA isolation and cDNA synthesis were carried out according to the manufacturer's protocol. Predesigned labeled primer and probe sets for HOXA9 (Hs00365956), MEIS1 (Hs00180020) and FLT3 (Hs00975659) were purchased from Applied Biosystems. Quantitative real-time PCR (qPCR) reactions contained 50 ng cDNA, 1× labeled primer and probe set, and 1× Taqman universal PCR master mix (Applied Biosystems 4304437). Samples were run on a 7900 HT Fast Real Time PCR machine (Applied Biosystems 4351405) with cycling conditions of 2 min 50° C., 10 min 95° C., 40 cycles at 15 sec 95° C. and 1 min 60° C. […] Percent of DMSO control was calculated with the equation (2^−ΔΔCT)*100 where the ΔΔCT is the difference between normalized target gene and DMSO control (ΔCT sample−ΔCT control=ΔΔCT).

The test system of a further assay is DOT1L. Briefly: Quantitative real-time PCR, DOT1L expression after DOT1L inhibitor treatment. The conditions noted are these: up to 10 μM for 6 days, qPCR. Here is the method: as §2

Here are results for 2 molecules from patent US20200113923A1, “DOT1L INHIBITORS FOR USE IN THE TREATMENT OF LEUKEMIA” (Epizyme, Inc., priority 2012, published 2020).

pIC50: −log10 of the molar value.

The term pIC50 denotes the negative decadic logarithm of the IC50, by convention in mol/L. In the case of `CC(C)N(C[C@H]1O[C@@H](n2cnc3c(N)ncnc32)[C@H](O)[C@@H]1O)[C@H]1C[C@@H](CCc2nc3cc(C(C)(C)C)ccc3[nH]2)C1` [Compound A2, (2R,3R,4S,5R)-2-(6-amino-9H-purin-9-yl)-5-((((1r,3S)-3-(2-(5-(tert-butyl)-1H-benzo[d]imidazol-2-yl)ethyl)cyclobu-tyl)(isopropyl)a-mino)methyl)tet-rahydrofuran-3,4-diol], the “cell growth of EOL-1 cells” value in the assay on EOL-1 cells (0.003 μM-50 μM, 11 days, MLL PTD cell line) is “significantly inhibited”. Further, the negative logarithm of the IC50 (pIC50) was 8.70 with EOL-1 cells (Homo sapiens, EOL1, 264 h, concentration-dependence curves at day 11) and 7.57 in the assay with H3K79me2 (Homo sapiens, EOL1, 96 h, 4 days of treatment, read-out: IC50, inhibition of methylation of H3K79 (H3K79me2)). Moreover, in the assay with HOXA9, the HOXA9 expression result is “reduced in a dose-dependent manner”. The “inhibition of methyltransferase activity of DOT1L (H3K79me2 western blot)” value in the assay on H3K79me2 (4 days, 0.009 to 10 μM) is given as “dose-dependent inhibition”. Besides, the FLT3 expression result with FLT3 was “reduced in a dose-dependent manner”.

`CC(C)N(CCCNC(=O)Nc1ccc(C(C)(C)C)cc1)CC1O[C@@H](n2ccc3c(N)ncnc32)[C@H](O)[C@@H]1O` (stereo partly shown) [Compound T]: the HOXA9 expression entry in the assay on HOXA9 is recorded as “reduced in a dosage-dependent manner”. The MEIS1 expression result with MEIS1 is “reduced in a dosage-dependent manner”. Also, in the assay with DOT1L, the DOT1L gene expression entry is listed as “not reduced”. Further, the FLT3 expression result in the assay with FLT3 was “reduced in a dosage-dependent manner”.
